From US20230009626A1 (ICHNOS SCIENCES S.A., priority 2018, published 2023)

Molecular target: HPK1 (MAP4K1) (Homo sapiens, UniProt Q92918)
Assay: FRET Assay for HPK1 (MAP4K1): one step binding assay, displacement of labeled tracer
Settings: for inhibition at 1 µM: 1 μM compound; for inhibition at 1 µM / inhibition at 10 µM: FRET ratio 665/620, percent of control; for inhibition at 10 µM: 10 μM compound; for IC50: dose response curve, nonlinear regression
Outline: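 Percent inhibition at 1.0 and 10.0 μM and IC50 by nonlinear regression were derived from loss of FRET signal versus control. The signal runs from Eu-anti-GST antibody (4 nM) bound to 10 nM HPK1 kinase to Alexa Fluor 647 Kinase Tracer 222 (20 nM), added after a 15-min on-ice compound pre-incubation. Binding then proceeded 1 h at room temperature in HEPES pH 7.5 buffer with 10 mM MgCl2, 1 mM EGTA, 0.01% Brij-35 and 3% DMSO.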

Chain of HPK1 (MAP4K1) (Q92918 whole entry): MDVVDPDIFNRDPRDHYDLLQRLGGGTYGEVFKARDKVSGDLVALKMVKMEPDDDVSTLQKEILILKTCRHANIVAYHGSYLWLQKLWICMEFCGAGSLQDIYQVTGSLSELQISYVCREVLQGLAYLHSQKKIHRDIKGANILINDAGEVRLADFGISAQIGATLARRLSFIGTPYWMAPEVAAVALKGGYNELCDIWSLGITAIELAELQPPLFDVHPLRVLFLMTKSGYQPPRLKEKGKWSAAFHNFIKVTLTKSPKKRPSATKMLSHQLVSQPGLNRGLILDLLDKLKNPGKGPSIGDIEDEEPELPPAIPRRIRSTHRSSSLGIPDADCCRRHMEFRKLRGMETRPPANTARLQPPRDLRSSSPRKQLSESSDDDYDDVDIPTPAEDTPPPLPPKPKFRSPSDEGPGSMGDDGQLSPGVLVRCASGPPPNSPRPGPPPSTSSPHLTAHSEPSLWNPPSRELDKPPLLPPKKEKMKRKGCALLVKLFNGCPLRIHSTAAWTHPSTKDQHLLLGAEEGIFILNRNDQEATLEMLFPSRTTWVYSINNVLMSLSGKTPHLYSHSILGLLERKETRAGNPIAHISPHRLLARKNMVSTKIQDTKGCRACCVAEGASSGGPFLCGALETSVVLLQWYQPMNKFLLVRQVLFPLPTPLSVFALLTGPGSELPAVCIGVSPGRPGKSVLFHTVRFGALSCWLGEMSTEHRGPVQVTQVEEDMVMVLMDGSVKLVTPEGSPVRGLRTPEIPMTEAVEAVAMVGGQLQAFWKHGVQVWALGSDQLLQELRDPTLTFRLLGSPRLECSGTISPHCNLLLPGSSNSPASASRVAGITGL

Row | inhibition at 1 µM | inhibition at 10 µM | IC50 | Structure (SMILES)
1 | 79.2% | 89.8% | < 50 nM | C/C(Nc1ccn(CC(=O)N(C)C)n1)=C1/C(=O)Nc2cnc(-c3cnccc3C)cc21 [Example 128, (Z)-N,N-Dimethyl-2-(3-((1-(5-(4-methylpyridin-3-yl)-2-oxo-1H-pyrrolo[2,3-c]pyridin-3(2H)-ylidene)ethyl)amino)-1H-pyrazol-1-yl)acetamide]
2 | 76.4% | 82.2% | < 50 nM | C/C(Nc1cc(C)n(C)n1)=C1/C(=O)Nc2cnc(-c3cnccc3C)cc21 [Example 129, (Z)-3-(1-((1,5-dimethyl-1H-pyrazol-3-yl)amino)ethylidene)-5-(4-methylpyridin-3-yl)-1H-pyrrolo[2,3-c]pyridin-2(3H)-one]
3 | 79.4% | 84.8% | < 50 nM | CC(=O)N1CCC(n2ccc(N/C(C)=C3\C(=O)Nc4cnc(-c5cnccc5C)cc43)n2)CC1 [Example 130, (Z)-3-(1-((1-(1-Acetylpiperidin-4-yl)-1H-pyrazol-3-yl)amino)ethylidene)-5-(4-methylpyridin-3-yl)-1H-pyrrolo[2,3-c]pyridin-2(3H)-one]
4 | 82.2% | 83.7% | < 50 nM | C/C(Nc1ccn(CC(=O)N2CCOCC2)n1)=C1/C(=O)Nc2cnc(-c3cnccc3C)cc21 [Example 131, (Z)-5-(4-Methylpyridin-3-yl)-3-(1-((1-(2-morpholino-2-oxoethyl)-1H-pyrazol-3-yl)amino)ethylidene)-1H-pyrrolo[2,3-c]pyridin-2(3H)-one]
5 | 81% | 80.9% | 100 to 500 nM | C/C(Nc1cc(C)nn1C)=C1/C(=O)Nc2cnc(-c3cnccc3C)cc21 [Example 132, (Z)-3-(1-((1,3-Dimethyl-1H-pyrazol-5-yl)amino)ethylidene)-5-(4-methylpyridin-3-yl)-1H-pyrrolo[2,3-c]pyridin-2(3H)-one]
6 | 79.9% | 88% | < 50 nM | C/C(Nc1ccn(C[C@H](C)O)n1)=C1/C(=O)Nc2cnc(-c3cnccc3C)cc21 [Example 133, (S,Z)-3-(1-((1-(2-Hydroxypropyl)-1H-pyrazol-3-yl)amino)ethylidene)-5-(4-methylpyridin-3-yl)-1H-pyrrolo[2,3-c]pyridin-2(3H)-one]
7 | 83.6% | 85.2% | < 50 nM | C/C(Nc1ccn([C@@H](C)CO)n1)=C1/C(=O)Nc2cnc(-c3cnccc3C)cc21 [Example 134, (S,Z)-3-(1-((1-(1-Hydroxypropan-2-yl)-1H-pyrazol-3-yl)amino)ethylidene)-5-(4-methylpyridin-3-yl)-1H-pyrrolo[2,3-c]pyridin-2(3H)-one]
8 | 78.5% | 83.9% | 50 to 100 nM | C/C(Nc1cn(C)nc1C)=C1/C(=O)Nc2cnc(-c3cnccc3C)cc21 [Example 135, (Z)-3-(1-((1,3-Dimethyl-1H-pyrazol-4-yl)amino)ethylidene)-5-(4-methylpyridin-3-yl)-1H-pyrrolo[2,3-c]pyridin-2(3H)-one]
9 | 82.3% | 78.9% | < 50 nM | C/C(Nc1ccn(C[C@@H](C)O)n1)=C1/C(=O)Nc2cnc(-c3cnccc3C)cc21 [Example 136, (R,Z)-3-(1-((1-(2-Hydroxypropyl)-1H-pyrazol-3-yl)amino)ethylidene)-5-(4-methylpyridin-3-yl)-1H-pyrrolo[2,3-c]pyridin-2(3H)-one]
10 | 80.7% | 80.2% | < 50 nM | C/C(Nc1ccn([C@H](C)CO)n1)=C1/C(=O)Nc2cnc(-c3cnccc3C)cc21 [Example 137, (R,Z)-3-(1-((1-(1-Hydroxypropan-2-yl)-1H-pyrazol-3-yl)amino)ethylidene)-5-(4-methylpyridin-3-yl)-1H-pyrrolo[2,3-c]pyridin-2(3H)-one]
11 | 90.7% |  | < 50 nM | C/C(Nc1ccn(C)n1)=C1/C(=O)Nc2cnc(-c3cncc4c3OCC(=O)N4)cc21 [Example 138, (Z)-8-(3-(1-((1-Methyl-1H-pyrazol-3-yl)amino)ethylidene)-2-oxo-2,3-dihydro-1H-pyrrolo[2,3-c]pyridin-5-yl)-2H-pyrido[4,3-b][1,4]oxazin-3(4H)-one]
12 | 77% | 84.5% | < 50 nM | C/C(Nc1ccn(C)n1)=C1/C(=O)Nc2cc(C#N)c(-c3cnccc3C)cc21 [Example 139, (Z)-3-(1-((1-Methyl-1H-pyrazol-3-yl)amino)ethylidene)-5-(4-methylpyridin-3-yl)-2-oxoindoline-6-carbonitrile]
13 | 79.8% | 91.3% | < 50 nM | C/C(Nc1ccn(C)n1)=C1/C(=O)Nc2cnc(-c3cncc(N)c3C)cc21 [Example 140, (Z)-5-(5-Amino-4-methylpyridin-3-yl)-3-(1-((1-methyl-1H-pyrazol-3-yl)amino)ethylidene)-1H-pyrrolo[2,3-c]pyridin-2(3H)-one]
14 | 80% | 85.9% | 50 to 100 nM | C/C(Nc1ccn(CC(C)(C)O)n1)=C1/C(=O)Nc2cnc(-c3c(C)cccc3F)cc21 [Example 141, (Z)-5-(2-Fluoro-6-methylphenyl)-3-(1-((1-(2-hydroxy-2-methylpropyl)-1H-pyrazol-3-yl)amino)ethylidene)-1H-pyrrolo[2,3-c]pyridin-2(3H)-one]
15 | 77.9% | 80.8% | < 50 nM | C/C(Nc1ccn(C(C)(C)C#N)n1)=C1/C(=O)Nc2cnc(-c3c(C)cccc3F)cc21 [Example 142, (Z)-2-(3-((1-(5-(2-Fluoro-6-methylphenyl)-2-oxo-1H-pyrrolo[2,3-c]pyridin-3(2H)-ylidene)ethyl)amino)-1H-pyrazol-1-yl)-2-methylpropanenitrile]
16 | 80.4% | 83.8% | < 50 nM | COCCn1ccc(N/C(C)=C2\C(=O)Nc3cnc(-c4cnccc4C)cc32)n1 [Example 143, (Z)-3-(1-((1-(2-Methoxyethyl)-1H-pyrazol-3-yl)amino)ethylidene)-5-(4-methylpyridin-3-yl)-1H-pyrrolo[2,3-c]pyridin-2(3H)-one]
17 | 80.5% | 84.6% | < 50 nM | COc1cccc(F)c1-c1cc2c(cn1)NC(=O)/C2=C(/C)Nc1ccn(CC(C)(C)O)n1 [Example 144, (Z)-5-(2-Fluoro-6-methoxyphenyl)-3-(1-((1-(2-hydroxy-2-methylpropyl)-1H-pyrazol-3-yl)amino)ethylidene)-1H-pyrrolo[2,3-c]pyridin-2(3H)-one]
18 | 79.4% | 83.9% | < 50 nM | C/C(Nc1ccn(C(C)(C)CO)n1)=C1/C(=O)Nc2cnc(-c3cnccc3C)cc21 [Example 145, (Z)-3-(1-((1-(1-Hydroxy-2-methylpropan-2-yl)-1H-pyrazol-3-yl)amino)ethylidene)-5-(4-methylpyridin-3-yl)-1H-pyrrolo[2,3-c]pyridin-2(3H)-one]
19 | 80.2% | 88.7% | < 50 nM | C/C(Nc1cc2n(n1)CCOC2)=C1/C(=O)Nc2cnc(-c3cnccc3C)cc21 [Example 146, (Z)-3-(1-((6,7-Dihydro-4H-pyrazolo[5,1-c][1,4]oxazin-2-yl)amino)ethylidene)-5-(4-methylpyridin-3-yl)-1H-pyrrolo[2,3-c]pyridin-2(3H)-one]
